Measured values taken from ChEMBL document CHEMBL4706505, “F10, a new camptothecin derivative, was identified as a new orally-bioavailable, potent antitumor agent” (Eur J Med Chem, 2020).
Active and inactive are the calls of the source. No cut-off for these calls is given here.

Experiments:
[1] = test system: HCT-116; experiment: Cytotoxicity against human HCT-116 assessed as reduction in cell viability measured after 72 hrs by MTT assay; assay type: functional, cell-based; conditions: HCT-116, 72 h
[2] = test system: A549; experiment: Cytotoxicity against human A549 assessed as reduction in cell viability measured after 72 hrs by MTT assay; assay type: functional, cell-based; conditions: A549, 72 h
[3] = test system: LoVo; experiment: Cytotoxicity against human LoVo assessed as reduction in cell viability measured after 72 hrs by MTT assay; assay type: functional, cell-based
[4] = test system: HeLa; experiment: Cytotoxicity against human Hela assessed as reduction in cell viability measured after 72 hrs by MTT assay; assay type: functional, cell-based
[5] = test system: COLO 205; experiment: Cytotoxicity against human COLO 205 assessed as reduction in cell viability measured after 72 hrs by MTT assay; assay type: functional, cell-based; conditions: COLO 205, 72 h
[6] = test system: NCI-H1975; experiment: Cytotoxicity against human NCI-H1975 assessed as reduction in cell viability measured after 72 hrs by MTT assay; assay type: functional, cell-based; conditions: NCI-H1975, 72 h
[7] = test system: HCT-116; experiment: Induction of apoptosis in human HCT-116 cells assessed as early apoptotic cells level at 0.001 uM incubated for 24 hrs by Annexin V-FITC/PI staining based flow cytometry (reference value: 0.17%); assay type: functional
[8] = test system: HCT-116; experiment: Induction of apoptosis in human HCT-116 cells assessed as early apoptotic cells level at 0.03 uM incubated for 24 hrs by Annexin V-FITC/PI staining based flow cytometry (reference value: 0.17%); assay type: functional
[9] = Solubility of compound in water incubated for 24 hrs under shaking condition by HPLC analysis; assay type: physicochemical
[10] = test system: HCT-116; experiment: Inhibition of colony formation in human HCT-116 cells at 1 nM incubated for 12 days by crystal violet dye based assay; assay type: functional, cell-based; conditions: time 12.0 day
[11] = test system: HCT-116; experiment: Induction of apoptosis in human HCT-116 cells assessed as late apoptotic cells level at 1 uM incubated for 24 hrs by Annexin V-FITC/PI staining based flow cytometry (reference value: 0.07%); assay type: functional
[12] = Solubility of compound in phosphate buffer at pH 4.5 incubated for 24 hrs under shaking condition by HPLC analysis; assay type: physicochemical
[13] = test system: HCT-116; experiment: Induction of apoptosis in human HCT-116 cells assessed as late apoptotic cells level at 0.001 uM incubated for 24 hrs by Annexin V-FITC/PI staining based flow cytometry (reference value: 0.07%); assay type: functional
[14] = test system: HCT-116; experiment: Induction of apoptosis in human HCT-116 cells assessed as late apoptotic cells level at 0.03 uM incubated for 24 hrs by Annexin V-FITC/PI staining based flow cytometry (reference value: 0.07%); assay type: functional
[15] = test system: Raji; experiment: Cytotoxicity against human Raji assessed as reduction in cell viability measured after 72 hrs by MTT assay; assay type: functional, cell-based
[16] = Solubility of compound in phosphate buffer at pH 7.4 incubated for 24 hrs under shaking condition by HPLC analysis; assay type: physicochemical
[17] = test system: HCT-116; experiment: Induction of apoptosis in human HCT-116 cells assessed as early apoptotic cells level at 1 uM incubated for 24 hrs by Annexin V-FITC/PI staining based flow cytometry (reference value: 0.17%); assay type: functional
[18] = Toxicity in nude BALB/c mouse xenografted with human HCT-116 cells assessed as reduction in body weight at 20 mg/kg, po dosed once the every 2 day for upto 24 days; assay type: organism-based; conditions: in vivo, time <=24 day
[19] = test system: Raji; experiment: Antitumor activity against NPG mouse xenografted with human Raji cell assessed as tumor growth inhibition at 5 mg/kg, ip measured after 5 day; assay type: functional; conditions: 120 h, read-out: TGI
[20] = Toxicity in NPG mouse xenografted with human Raji cells assessed as body weight loss at 5 mg/kg, ip measured after 5 day; assay type: organism-based; conditions: in vivo, 120 h
[21] = Toxicity in NPG mouse xenografted with human Raji cells assessed as body weight loss at 5 mg/kg, ip measured on the 1 day; assay type: organism-based; conditions: in vivo, 24 h

Structure (SMILES)	IC50 [1]	IC50 [2]	IC50 [3]	IC50 [4]	IC50 [5]	IC50 [6]	further results
CC[C@@]1(O)C(=O)OCc2c1cc1n(c2=O)Cc2cc3cc(O)ccc3nc2-1 [HYDROXYCAMPTOTHECIN]	21 nM	80 nM	330 nM				
CC[C@@]1(O)C(=O)OCc2c1cc1n(c2=O)Cc2cc3cc(OCC(=O)N4CCN(C)CC4)ccc3nc2-1	> 10000 nM	> 10000 nM	> 10000 nM	2570 nM	> 10000 nM	> 10000 nM	
CC[C@@]1(O)C(=O)OCc2c1cc1n(c2=O)Cc2cc3cc(OCC(=O)N4CCC(N(C)C)CC4)ccc3nc2-1	> 10000 nM	> 10000 nM	> 10000 nM	> 10000 nM	> 10000 nM	> 10000 nM	
CCc1c2c(nc3ccc(O)cc13)-c1cc3c(c(=O)n1C2)COC(=O)[C@]3(O)CC [7-ETHYL-10-HYDROXYCAMPTOTHECIN]	10 nM	18 nM	301 nM	145 nM	220 nM	810 nM	Activity [7]: 2.91%; Activity [8]: 3.11%; solubility thermodynamic at 24 h [9]: < 0.25 µg/mL; inhibition [10]: Active; Activity [11]: 7.12%; solubility thermodynamic at 24 h [12]: < 0.25 µg/mL; Activity [13]: 2.81%; Activity [14]: 8.29%; IC50 [15]: 5 nM; solubility thermodynamic at 24 h [16]: < 0.25 µg/mL; Activity [17]: 24.42%
CC[C@@]1(O)C(=O)OCc2c1cc1n(c2=O)Cc2cc3cc(OCC(=O)N(C)CCN(C)C)ccc3nc2-1	> 10000 nM	> 10000 nM	> 10000 nM	> 10000 nM	> 10000 nM	> 10000 nM	
CC[C@@]1(O)C(=O)OCc2c1cc1n(c2=O)Cc2cc3cc(OCC(=O)N4CCCCC4)ccc3nc2-1	17 nM	55 nM	272 nM	380 nM	540 nM	1380 nM	
CCc1c2c(nc3ccc(OCC(=O)N4CCCC4)cc13)-c1cc3c(c(=O)n1C2)COC(=O)[C@]3(O)CC	12 nM	37 nM	181 nM	350 nM	250 nM	630 nM	IC50 [15]: 6 nM
CCc1c2c(nc3ccc(OC(=O)N4CCC(N5CCCCC5)CC4)cc13)-c1cc3c(c(=O)n1C2)COC(=O)[C@]3(O)CC.Cl							Activity [18]: Toxic; inhibition in vivo at 5 mg/kg [19]: 7.1%; Activity [20]: 23.5 g; Activity [21]: 24.2 g
CCN(CC)C(=O)COc1ccc2nc3c(cc2c1)Cn1c-3cc2c(c1=O)COC(=O)[C@]2(O)CC	101 nM	261 nM	933 nM	1010 nM	1520 nM	1960 nM	
CC[C@@]1(O)C(=O)OCc2c1cc1n(c2=O)Cc2cc3cc(OCC(=O)NCCN(C)C)ccc3nc2-1	> 10000 nM	> 10000 nM	> 10000 nM	> 10000 nM	> 10000 nM	> 10000 nM	
CCN(CC)CCNC(=O)COc1ccc2nc3c(cc2c1)Cn1c-3cc2c(c1=O)COC(=O)[C@]2(O)CC	> 10000 nM	> 10000 nM	> 10000 nM	> 10000 nM	> 10000 nM	> 10000 nM	
CC[C@@]1(O)C(=O)OCc2c1cc1n(c2=O)Cc2cc3cc(OCC(=O)N4CCCC4)ccc3nc2-1	81 nM	80 nM	880 nM	1370 nM	2830 nM	2810 nM	
